“Also recorded” adds a separate entry of the source. Non-standard residues stand in square brackets, D forms with d. Residues, ends and D or L forms follow the SMILES beside them. *: point of attachment. Chlorambucil = O=C(CCCc1ccc(N(CCCl)CCCl)cc1)*; Cha = N[C@@H](CC1CCCCC1)C(=O)O
Experiments:
[1] = tested on: CLL patient cells; test: Peptide uptake (flow cytometry); format: cell-based, human; conditions: 5 μM thiazole orange-labeled peptide, 15 min; CLL cells vs PBSCs and mononuclear cells
Procedure: CLL patient samples, PBSCs and healthy donor B cells were seeded at 200,000 cells per well in triplicate in a 24-well plate in Iscove's media. Cells were then incubated with 5 μM thiazole orange-labeled peptide for 15 min, washed with PBS and analyzed on FACSCanto (BD, Franklin Lakes) to determine relative intracellular peptide concentrations.

[2] = tested on: HL60 cells; test: Analysis of toxicity, CCK-8 viability, leukemia panel: HL60; conditions: for LC25 dose: HL60 cells
[3] = tested on: A2780 Cbl-resistant cells; test: Annexin V apoptosis assay, A2780 Cbl-resistant; format: cell-based; conditions: A2780 Cbl-resistant line
[4] = tested on: 17.7 kb nuclear DNA segment (β-globin gene) in HL60 cells; test: DNA lesion frequency by quantitative PCR, nuclear DNA; format: cell-based; conditions: HL60, Cbl 150 μM or mt-Cbl 3 μM, 2 hr
Procedure: (§1) A total of 5×10^6 HL60 cells were treated with Cbl (150 μM) or mt-Cbl (3 μM) for 2 hr. DNA was isolated from frozen cell pellets with the QIAGEN Genomic Tip and Genomic DNA Buffer Set Kit (QIAGEN) and quantified using the PicoGreen dye (Invitrogen). Quantitative amplification of the 8.9 kb mitochondrial segment and the 17.7 kb β-globin target sequence was performed using the GeneAmp XL PCR kit (Perkin-Elmer) as described previously^31. Lesion frequency at a given dose, D, was calculated as D=−In AD/AC, where AD is the amplification at the dose, and AC is the level of amplification in nondamaged controls.

[5] = tested on: red blood cells (healthy donors); test: Hemolysis assay; format: cell-based, human; conditions: RBCs of healthy donors, at concentrations used (LC25, LC50)
Procedure: Red blood cells obtained during Ficoll separation of healthy donor peripheral blood was used for this assay. Cells were washed with PBS until the supernatant was clear. Peptide solutions were made in Iscove's media and a 1:2 dilution was made across a 96-well plate. To each well, 2 μl, of red blood cells were added, mixed and then incubated for 1 hour at 37° C. with 5% CO2. For 100% lysis, 0.1% Triton X-100 was added to three wells and for 0% lysis, cells from three wells without peptide were used. Plates were spun at 1000×g for 10 min and 50 μL of supernatant was then transferred to a new plate, mixed with 50 μL of PBS and read at 415 nm.

[6] = tested on: HeLa cells; test: Mitochondrial membrane potential (JC-1, flow cytometry); format: cell-based; conditions: 1 hour treatment
Procedure: HeLa cells were seeded at 50,000 cells per well 24 hours prior to experiment. CLL patient samples, PBSCs and healthy donor B cells were seeded at 200,000 cells per well in triplicate in a 24-well plate in Iscove's media. Cells were then incubated with 2 μM of 5,5′,6,6′-tetrachloro-1,1′,3,3′-tetraethylbenzimidazolylcarbocyanine iodide (JC-1, Invitrogen, Carlsbad) for 20 minutes at 37° C. Each sample was then washed twice with 1 mL PBS and resuspended in 300 μL PBS prior to being read on a BD FACS Canto. Samples were excited at 488 nm and emission was collected at 526 nm (green) and 595 nm (red). To obtain the mitochondrial membrane potential (red/green), emission from the red channel was divided by emission from the green channel. For membrane depolarization studies, HeLa cells were treated with Cbl or MPP-Cbl for 1 hour in OPTI-MEM (Invitrogen, Carlsbad) prior to incubation with JC-1. Cells were washed with PBS, trypsinized and analyzed as above.

[7] = tested on: HL60 cells; test: Western blots of GADD45G pathway effector proteins (p38, JNK); format: cell-based; conditions: HL60, immunoblotting
Procedure: Leukemia cells were cultured as above and were washed twice with PBS prior to lysis (10 mM Tris, 200 mM NaCl, 1 mM EDTA (pH 7.4), 1 mM PMSF, 0.5% NP-40, 1% Triton X-100, 1× Protease Inhibitor Cocktail (Bioshop, Burlington, ON)) at 4° C., 30 min. Cells were then centrifuged at 1,200 rcf, 4° C., 5 min and protein levels were quantified using bicinchoninic acid (BCA) assay (Pierce, Rockford). 15 μg of total protein was diluted in 8× sample buffer and heated to 42° C. for 5 min prior to loading on 15% gel. Gels were run at 100 V for 1 h, and then proteins were transferred onto nitrocellulose membrane at 100 V for 40 min. Membranes were blocked with 5% skim milk for 1 hour and then probed with primary antibody according to manufacturer's instructions (1:500 BclXL antibody [Abcam, Cambridge, Mass.], 1:2000 β-actin antibody [Abcam], 1:1000 phospho INK [Abcam], 1:1000 phospho p38 [Abcam], 1:1000 GADD45G [Santa Cruz Biotechnology, Santa Cruz, Calif.], 1:1000 PPP1R15A [Santa Cruz Biotechnology], 1:1000 DNA Ligase III [Santa Cruz Biotechnology], 1:1000 p21 [Santa Cruz Biotechnology], and 1:1000 DDIT3 [Cell Signaling Technology, Beverly, Mass.]). Membranes were then washed and incubated with 1:5000 donkey anti-mouse or goat anti-rabbit IgG-HRP secondary antibody for 1 hr prior to ECL chemiluminescence detection (GE Amersham).

[8] = tested on: CLL patient cells; test: Annexin V/Sytox Red viability of CLL patient cells versus healthy donor cells; format: cell-based, human; conditions: LC25 and LC50; PBSCs and mononuclear cells of healthy donors as comparison
[9] = Colorimetric alkylation assay; format: biochemical; conditions: absorbance of 4-NBP upon alkylation
Procedure: Alkylation was tested using 4-(4-Nitrobenzyl)pyridine (4-NBP) (Thomas, et al., 1992). Briefly, compound (200-450 μM) was incubated with 4-NBP (0.7% w/vol) in a buffer containing 85 mM triethanolamine (pH 7.2) and 43% acetone. Reactions were incubated at 37° C. for 30-120 min. Reactions were terminated by freezing in a dry ice/ethanol bath. To develop samples, […] ethyl acetate and 25 μl 5N NaOH were added followed by vortexing. Absorbance of organic ethyl acetate was read at 540 nm.

[10] = tested on: 8.9 kb mitochondrial DNA segment in HL60 cells; test: DNA lesion frequency by quantitative PCR, mitochondrial DNA; format: cell-based; conditions: HL60, Cbl 150 μM or mt-Cbl 3 μM, 2 hr
Procedure: as §1

[11] = tested on: HeLa cells; test: Analysis of mitochondrial superoxide levels (MitoSOX, flow cytometry); format: cell-based; conditions: 1 hour treatment
Procedure: HeLa cells were plated at 100,000 per well of a 24-well plate 24 hours prior to experiment and treated with Cbl or MPP-Cbl in OPTI-MEM (Invitrogen, Carlsbad) for 1 hour. Media was removed and cells were incubated with MitoSox (Invitrogen, Carlsbad) according to manufacturer's instructions. Cells were washed with PBS, trypsinized and analyzed via flow cytometry with FACSCanto (BD, Franklin Lakes).

[12] = tested on: pBR322DNA; test: Crosslinking of isolated DNA; format: biochemical; conditions: 2-200 μM
Procedure: Crosslinking of isolated pBR322DNA was determined from a modification of a published method.^30 Briefly, pBR322DNA was incubated with compounds at concentrations and times indicated in 25 mM triethanolamine (pH 7.2) and 1 mM EDTA. Reactions were terminated by the addition of 50 mM EDTA and 150 μg/ml excess short oligonucleotide DNA. Samples were denatured at 95° C. in denaturation buffer (30% DMSO, 1 mM EDTA, bromophenol blue, xylene cyanol, and 0.4% SDS) for 3 min and flash frozen in a dry ice/ethanol bath. Electrophoresis was carried out in 0.8% agarose in TAE buffer and stained post-run with ethidium bromide.

[13] = tested on: HL60 cells; test: Quantitative real-time PCR array of DNA damage signaling genes; format: cell-based, human; conditions: for DDIT3/GADD153 change in expression: vs untreated cells
[14] = tested on: HeLa cells; test: Analysis of toxicity, CCK-8 viability, HeLa; format: cell-based
[15] = tested on: A2780 wildtype cells; test: Annexin V apoptosis assay, A2780 wild-type; format: cell-based; conditions: A2780 wild-type line
[16] = tested on: AML2 (OCI-AML2) cells; test: Analysis of toxicity, CCK-8 viability, leukemia panel: AML2; conditions: Homo sapiens, OCI-AML2, read-out: LC50
[17] = tested on: LY17 cells; test: Analysis of toxicity, CCK-8 viability, leukemia panel: LY17; conditions: read-out: LC50
[18] = tested on: U937 cells; test: Analysis of toxicity, CCK-8 viability, leukemia panel: U937; conditions: Homo sapiens, U-937, read-out: LC50
[19] = tested on: M2 (OCI-M2) cells; test: Analysis of toxicity, CCK-8 viability, leukemia panel: M2
[20] = tested on: K562 cells; test: Analysis of toxicity, CCK-8 viability, leukemia panel: K562
[21] = tested on: DAUDI cells; test: Analysis of toxicity, CCK-8 viability, leukemia panel: DAUDI; conditions: Homo sapiens, read-out: LC50
[22] = immunogold TEM, mouse liver mitochondria
Procedure: Mitochondria were isolated from fresh mouse liver as previously described^1. Functionality was confirmed using respirometry. The isolated organelles were used only when the levels of oxygen consumption in state III respiration (presence of ADP) were >4 fold greater than in state II respiration, indicating well-coupled mitochondria. Mitochondrial protein concentration was determined by BCA assay (Sigma). […] Cold PBS was added and mitochondria were pelleted by centrifugation. The pellet was fixed in 1% glutaraldehyde in PBS for 90 min at room temperature, washed with PBS, then fixed with 1% osmium tetroxide for 2 hr at 4° C. The pellets were dehydrated using graded ethanol, followed by stepwise infiltration with propylene oxide and Epon-Araldite resin. The pellets were cured in resin for 48 hr at 60° C. The blocks were sectioned to 60 nm and the sections adhered to nickel grids for 30 min at 60° C. The grids were floated on saturated aqueous sodium metaperiodate for an hour at room temperature, washed, then blocked with 1% BSA, and labeled with Anti-biotin (Jackson Immunolabs) followed by Protein A-gold (Aurion, 10 nm). The grids were rinsed with water and stained with 2% uranyl acetate for 5 minutes. To quantitate gold labeling, 200 gold particles (for more densely labeled samples) or 400 mitochondria (for less densely labeled samples) were counted for each counting event. […]

[23] = HL60, LC25 dose, greater with mt-Cbl relative to Cbl alone

Molecule: TO-FxrFxrFxr [to-MPP]
- peptide uptake [1]: higher levels of peptide uptake in CLL cells

Molecule: CC(=O)N[C@@H](CC1CCCCC1)C(=O)N[C@H](CCCNC(=N)N)C(=O)N[C@@H](CC1CCCCC1)C(=O)N[C@H](CCCNC(=N)N)C(=O)N[C@@H](CC1CCCCC1)C(=O)N[C@H](CCCNC(=N)N)C(=O)N[C@H](CCCCNC(=O)CCCc1ccc(N(CCCl)CCCl)cc1)C(N)=O [MPP-Cbl, Ac-FxrFxrFxrk-Cbl] (Ac-[Cha][dR][Cha][dR][Cha][dR][dK](Chlorambucil)-NH2)
- LC25 dose [2]: 3 µM
- concentration inducing cell death ([3]; value comparable to wild-type): 9 µM
- damage of nuclear DNA [4]: minimal effect on the nuclear genome
- hemolysis [5]: nominal hemolysis levels; also recorded: minimal
- depolarization of mitochondrial membrane [6]: noted upon MPP-Cbl treatment
- activation of p38 or JNK pathways [7]: activating JNK
- selective toxicity to CLL patient cells versus healthy donor cells [8]: more selectively toxic to CLL patient samples cells
- reduction of alkylating ability compared to Cbl alone [9]: approximately two fold
- damage of mitochondrial DNA [10]: significant reduction of mitochondrial DNA amplification
- increase of mitochondrial superoxide levels [11]: noted upon MPP-Cbl treatment
- DNA crosslink formation [12]: concentration-dependent crosslink formation
- p21 expression ([13]; HL60, LC25 dose): overexpressed
- DDIT3/GADD153 change in expression ([13]; HL60, LC25 dose): no change
- GADD45G upregulation [13, 23]: 15 fold
- PPP1R15A/GADD34 upregulation [13, 23]: 4 fold
- Ligase III increase in expression ([13]; HL60, LC50 dose, 1 hr): this was detected
- increase in potency compared to Cbl ([14]; cell viability assay, 24 hours): 100 fold
- concentration inducing cell death [15]: 9 µM

Molecule: Ac-FxrFxrFxr [MPP]
- toxicity ([14]; concentration range tested): did not show appreciable toxicity

Molecule: O=C(O)CCCc1ccc(N(CCCl)CCCl)cc1 [Cbl, chlorambucil]
- LC25 dose [2]: 17 µM
- EC50 ([2]; Homo sapiens, HL-60): 34 µM
- CC50 ([2]; Homo sapiens, HL-60, read-out: LC50): 34 ± 6 µM
- CC50 [16]: 28 ± 3 µM
- toxicity ([3]; even at 100 μM): insignificant
- damage of nuclear DNA [4]: primarily damaged nuclear DNA
- hemolysis [5]: minimal
- depolarization of mitochondrial membrane [6]: not with Cbl
- activation of p38 or JNK pathways [7]: activating p38
- CC50 [17]: 55 ± 7 µM
- selective toxicity to CLL patient cells versus healthy donor cells [8]: more selectively toxic to CLL patient samples cells
- damage of mitochondrial DNA [10]: very few mitochondrial lesions
- DNA crosslink formation [12]: concentration-dependent crosslink formation
- CC50 [18]: 34 ± 5 µM
- CC50 ([19]; OCI-M2, read-out: LC50): 311 ± 24 µM
- resistance to Cbl relative to rest of the cohort ([19]; OCI-M2 cells): approximately 10 fold
- p21 expression ([13]; HL60, LC25 dose): overexpressed
- DDIT3/GADD153 change in expression ([13]; HL60, LC25 dose): 5 fold
- CC50 ([20]; Homo sapiens, K562, read-out: LC50): 306 ± 26 µM
- resistance to Cbl relative to rest of the cohort ([20]; K562 cells): approximately 10 fold
- CC50 [21]: 27 ± 7 µM
- induction of cell death [15]: able to induce cell death

Molecule: Biotin-FxrFxrFxr [Biotin-MPP]
- localization within isolated mitochondria [22]: predominantly matrix localization

Source: US9132198B2, “Mitochondrial penetrating peptides as carriers for anticancer compounds” (priority 2011, dated 2015)
